This passage reports Kd results from publication PMC2156146 (The Journal of Cell Biology, 1999).

The test concerns the target T1, SRβ (30-kD β-subunit of the SRP receptor) in SR liposomes (Canis lupus, UniProt A0A8I3Q3L6).
T1 sequence (A0A8I3Q3L6 1-271): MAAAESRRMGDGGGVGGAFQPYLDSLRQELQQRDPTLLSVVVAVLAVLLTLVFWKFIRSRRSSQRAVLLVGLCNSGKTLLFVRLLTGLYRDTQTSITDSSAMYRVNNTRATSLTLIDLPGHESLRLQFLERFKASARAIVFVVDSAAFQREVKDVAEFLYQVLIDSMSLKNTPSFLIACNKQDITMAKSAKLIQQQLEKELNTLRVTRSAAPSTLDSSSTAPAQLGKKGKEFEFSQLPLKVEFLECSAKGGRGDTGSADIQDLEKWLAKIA
T1 sequence (P06625 1-638 partner): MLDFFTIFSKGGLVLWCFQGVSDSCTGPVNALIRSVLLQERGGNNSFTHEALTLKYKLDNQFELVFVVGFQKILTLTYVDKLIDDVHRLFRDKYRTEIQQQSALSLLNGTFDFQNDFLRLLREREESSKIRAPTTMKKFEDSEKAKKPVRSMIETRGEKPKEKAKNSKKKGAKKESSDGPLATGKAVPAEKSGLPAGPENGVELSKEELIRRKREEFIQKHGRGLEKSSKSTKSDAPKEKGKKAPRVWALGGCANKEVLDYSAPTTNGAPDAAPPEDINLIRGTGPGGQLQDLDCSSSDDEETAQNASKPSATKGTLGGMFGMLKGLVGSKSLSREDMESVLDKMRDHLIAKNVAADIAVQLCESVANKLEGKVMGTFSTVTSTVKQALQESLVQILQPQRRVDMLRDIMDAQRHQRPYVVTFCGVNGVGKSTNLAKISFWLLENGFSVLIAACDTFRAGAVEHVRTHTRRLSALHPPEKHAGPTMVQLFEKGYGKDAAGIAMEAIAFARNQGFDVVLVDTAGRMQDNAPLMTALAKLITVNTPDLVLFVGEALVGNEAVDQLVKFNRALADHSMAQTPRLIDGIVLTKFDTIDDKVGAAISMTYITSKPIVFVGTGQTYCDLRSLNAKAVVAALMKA
Description: UV cross-linking of alpha-[…]GTP, saturation, SDS-PAGE and PhosphorImaging. The test is classed as binding.

Broadly, the Kd is the free concentration of one partner at which half of the binding sites on the other are occupied at equilibrium, for simple one-to-one binding. A higher Kd goes with weaker binding. With `Nc1nc2c(ncn2[C@@H]2O[C@H](COP(=O)(O)OP(=O)(O)OP(=O)(O)O)[C@@H](O)[C@H]2O)c(=O)[nH]1` [GTP], binding was put at a Kd of 20 nM.
